Source: patent US6800418B2, “Fluorine-containing photosensitive polymer having hydrate structure and resist composition comprising the same” (Samsung Electronics, priority 2001, dated 2004)

Assay: Measurement of pKa Value
Assay type: physicochemical
Details: pKa value of monomers, measured to identify whether the structure is dissolvable in developers
Method: To determine whether a repeating monomer unit of a polymer according to the present invention has a structure dissolvable in common developers, pKa value was measured.
The pKa value was measured for a variety of monomers having different structures to identify whether hydrate is dissolvable in developers.

Compared with `C=Cc1ccc(O)cc1` [MONOMER 2, vinylphenol], `C=Cc1ccc(C(O)(C(F)(F)F)C(F)(F)F)cc1` [MONOMER 5] is lower in pKa: 9.97 for the first, 8.96 for the second.

Going from `C=C(C)C(=O)O` [MONOMER 3] to `OC(C1CC2C=CC1C2)C(F)(F)C(O)(O)C(F)(F)F` (centres unmarked) [MONOMER 6], the pKa rises from 4.58 to 8.33.

Work on `OC(CC1CC2C=CC1C2)(C(F)(F)F)C(F)(F)F` (centres unmarked) [MONOMER 4] yielded a pKa of 9.67.
